For 9 molecules, EC50 and Ki results are on record in patent publication US7405240B2, “Substituted cyclopentanes or cyclopentanones as therapeutic agents” (Allergan, Inc., priority 2006, dated 2008).

For orientation: EC50 means the concentration giving half of the maximal effect. As a reminder, the Ki is the equilibrium dissociation constant of an inhibitor or competing ligand from its target.

Assay [1] deals with T1, hEP2 (Homo sapiens, UniProt P43116). Kind of assay: cAMP assay, hEP2. The class given is cell-based.
Assay [2] deals with T1, hEP2. Put plainly: Competition binding, [3H]PGE2, human EP2 receptors. More on the design: expressed in transfected cells; host or cells: HEK 293. As to conditions: [3H]PGE2, HEK 293 cells stably expressing human EP2; read-out: hEP2 Ki. The method, then: Competition binding experiments were performed in a medium containing Hank's balanced salt solution, Hepes 20 mM, pH 7.3, membranes (˜60 μg protein) or 2×10^5 cells from HEK 293 cells stably expressing human EP2 receptors, [^3H]PGE2 (10 nM) and various concentrations of test compounds in a total volume of 300 μl. Reaction mixtures were incubated at 23° C. for 60 min, and were filtered over Whatman GF/B filters under vacuum. Filters were washed three times with 5 ml ice-cold buffer containing 50 mM Tris/HCl (pH 7.3). Non-specific binding was estimated in the presence of excess unlabeled PGE2 (10 μM). Binding data fitted to the binding model for a single class of binding sites, using nonlinear regression analysis. IC50 values thus obtained were converted to Ki using the equation of Ki=(IC50/(1+[L]/KD) where [L] represents PGE2 concentration (10 nM) and KD the dissociation constant for [^3H]PGE2 at human EP2 receptors (40 nM).
(§1) HEK-293 cells stably expressing the human or feline FP receptor, or EP1, EP2, or EP4 receptors were washed with TME buffer, scraped from the bottom of the flasks, and homogenized for 30 sec using a Brinkman PT 10/35 polytron. TME buffer was added to achieve a final 40 ml volume in the centrifuge tubes (the composition of TME is 100 mM TRIS base, 20 mM MgCl2, […]; 10N HCl is added to achieve a pH of 7.4).
(§2) The cell homogenate was centrifuged at 19000 r.p.m. for 20 min at 4° C. using a Beckman Ti-60 rotor. The resultant pellet was resuspended in TME buffer to give a final 1 mg/ml protein concentration, as determined by Biorad assay. Radioligand binding competition assays vs. [3H-] 17-phenyl PGF2, (5 nM) were performed in a 100 μl volume for 60 min. Binding reactions were started by adding plasma membrane fraction. The reaction was terminated by the addition of 4 ml ice-cold TRIS-HCl buffer and rapid filtration through glass fiber GF/B filters using a Brandel cell harvester. The filters were washed 3 times with ice-cold buffer and oven dried for one hour.
(§3) [^3H-] PGE2 (specific activity 180 Ci mmol) was used as the radioligand for EP receptors. [^3H] 17-phenyl PGF2, was employed for FP receptor binding studies. Binding studies employing EP1, EP2, EP4 and FP receptors were performed in duplicate in at least three separate experiments. A […] assay volume was used. Incubations were for 60 min at 25° C. and were terminated by the addition of 4 ml of ice-cold 50 mM TRIS-HCl, followed by rapid filtration through Whatman GF/B filters and three additional 4 ml washes in a cell harvester (Brandel). Competition studies were performed using a final concentration of 5 nM [^3H]-PGE2, or 5 nM [^3H] 17-phenyl PGF2, and non-specific binding determined with 10^−5M of unlabeled PGE2, or 17-phenyl PGF2α, according to receptor subtype studied.

For assay [3], the target named is T2, hEP4 (Homo sapiens, UniProt P35408). Put plainly: Radioligand binding, EP4 receptor. Also on record: expressed in transfected cells; host or cells: HEK-293. As to conditions: [3H]PGE2, HEK-293 cells expressing EP4. The protocol: as §1, §2, §3
For assay [4], the target named is T1, hEP2. Kind of assay: FLIPR calcium signal, hEP2. The class given is cell-based. Also on record: expressed in transfected cells; host or cells: HEK-293(EBNA). The note with it: HEK-293(EBNA) cells expressing hEP2/Gqs5. The method, then: (§4) Methods for FLIPR™ Studies
(§5) HEK-293(EBNA) cells, stably expressing one type or subtype of recombinant human prostaglandin receptors (prostaglandin receptors expressed: hDP/Gqs5; hEP1; hEP2/Gqs5; hEP3A/Gqi5; hEP4/Gqs5; hFP; hIP; hTP), were cultured in 100 mm culture dishes in high-glucose DMEM medium containing 10% fetal bovine serum, 2 mM 1-glutamine, 250 μg/ml geneticin (G418) and 200 μg/ml hygromycin B as selection markers, and 100 units/ml penicillin G, 100 μg/ml streptomycin and 0.25 μg/ml amphotericin B.
(§6) Cells were seeded at a density of 5×10^4 cells per well in Biocoat® Poly-D-lysine-coated black-wall, clear-bottom 96-well plates (Becton-Dickinson) and allowed to attach overnight in an incubator at 37° C. Cells were then washed two times with HBSS-HEPES buffer (Hanks Balanced Salt Solution without bicarbonate and phenol red, 20 mM HEPES, pH 7.4) using a Denley Cellwash plate washer (Labsystems). After 45 minutes of dye-loading in the dark, using the calcium-sensitive dye Fluo-4 AM at a final concentration of 2 μM, plates were washed four times with HBSS-HEPES buffer to remove excess dye leaving 100 μl in each well. Plates were re-equilibrated to 37° C. for a few minutes.
(§7) Cells were excited with an Argon laser at 488 nm, and emission was measured through a 510-570 nm bandwidth emission filter (FLIPR™, Molecular Devices, Sunnyvale, Calif.). Drug solution was added in a 50 μl volume to each well to give the desired final concentration. The peak increase in fluorescence intensity was recorded for each well. On each plate, four wells each served as negative (HBSS-HEPES buffer) and positive controls (standard agonists: BW245C (hDP); PGE2 (hEP1; hEP2/Gqs5; hEP3A/Gqi5; hEP4/Gqs5); PGF2α (hFP); carbacyclin (hIP); U-46619 (hTP), depending on receptor). The peak fluorescence change in each drug-containing well was then expressed relative to the controls.
(§8) Compounds were tested in a high-throughput (HTS) or concentration-response (CoRe) format. In the HTS format, forty-four compounds per plate were examined in duplicates at a concentration of 10^−5 M. To generate concentration-response curves, four compounds per plate were tested in duplicates in a concentration range between 10^−5 and 10^−11 M. The duplicate values were averaged. In either, HTS or CoRe format each compound was tested on at least 3 separate plates using cells from different passages to give an n≧3.

The target in assay [5] is T2, hEP4. Put plainly: FLIPR calcium signal, hEP4. Format: cell-based. More on the design: expressed in transfected cells; host or cells: HEK-293(EBNA). As to conditions: HEK-293(EBNA) cells expressing hEP4/Gqs5. The method, then: as §4, §5, §6, §7, §8

T1 sequence (P43116 whole entry): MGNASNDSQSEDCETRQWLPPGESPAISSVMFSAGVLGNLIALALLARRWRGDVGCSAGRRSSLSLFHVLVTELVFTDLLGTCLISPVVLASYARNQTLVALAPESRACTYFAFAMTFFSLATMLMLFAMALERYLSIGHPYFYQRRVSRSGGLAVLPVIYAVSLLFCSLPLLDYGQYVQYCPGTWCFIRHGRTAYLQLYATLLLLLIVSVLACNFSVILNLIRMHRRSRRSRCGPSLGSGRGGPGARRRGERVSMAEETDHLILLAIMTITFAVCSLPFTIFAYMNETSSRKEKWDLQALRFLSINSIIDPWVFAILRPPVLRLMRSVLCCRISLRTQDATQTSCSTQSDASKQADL
T2 sequence (P35408 whole entry): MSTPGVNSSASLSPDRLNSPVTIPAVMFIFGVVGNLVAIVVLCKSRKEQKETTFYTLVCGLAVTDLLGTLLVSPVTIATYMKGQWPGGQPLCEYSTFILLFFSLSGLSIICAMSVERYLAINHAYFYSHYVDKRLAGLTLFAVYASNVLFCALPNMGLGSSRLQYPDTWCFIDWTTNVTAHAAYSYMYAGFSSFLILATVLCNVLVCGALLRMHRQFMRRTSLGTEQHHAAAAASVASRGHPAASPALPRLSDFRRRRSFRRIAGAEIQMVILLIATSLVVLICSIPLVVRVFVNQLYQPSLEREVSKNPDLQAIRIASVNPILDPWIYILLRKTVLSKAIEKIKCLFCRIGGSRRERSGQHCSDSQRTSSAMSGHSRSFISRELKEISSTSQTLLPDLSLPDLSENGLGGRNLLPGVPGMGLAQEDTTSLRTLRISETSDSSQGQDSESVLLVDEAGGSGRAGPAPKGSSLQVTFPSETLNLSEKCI

Take `Cc1cc(OC[C@@H]2[C@@H](C/C=C\CCCC(=O)O)[C@H](Cl)C[C@H]2O)cc(C)c1Cl` [Example 39, (Z)-7-[(1R,2S,3R,5R)-5-Chloro-2-(4-chloro-3,5-dimethyl-phenoxymethyl)-3-hydroxy-cyclopentyl]-hept-5-enoic acid]: the EC50 is 0.7 nM in assay [1], 10 nM in assay [4] and more than 10000 nM in assay [5]. For the same molecule, the Ki in assay [2] was 11 nM; in assay [3], 281 nM.

On to `O=C(O)CCC/C=C\C[C@@H]1[C@@H](COc2ccccc2Cl)[C@H](O)C[C@H]1Cl` [Example 21, (Z)-7-[(1R,2S,3R,5R)-5-Chloro-2-(2-chloro-phenoxymethyl)-3-hydroxy-cyclopentyl]-hept-5-enoic acid], for which the EC50 stood at 37 nM in assay [1], 26 nM in assay [4] and 449 nM in assay [5]. Moreover, the inhibitory constant (Ki) in assay [2] is 303 nM; in assay [3] it was 5010 nM.

For `O=C(O)CCC/C=C\C[C@@H]1[C@@H](COc2ccc3ccccc3c2)[C@H](O)C[C@H]1Cl` [Example 17, (Z)-7-[(1R,2S,3R,5R)-5-Chloro-3-hydroxy-2-(naphthalen-2-yloxymethyl)-cyclopentyl]-hept-5-enoic acid], the EC50 in assay [1] stood at 27 nM; in assay [4] it was 301 nM; in assay [5], 3420 nM. For the same molecule, the Ki in assay [2] was found to be 61 nM; in assay [3] it was 507 nM.

Regarding `O=C(O)CCC/C=C\C[C@@H]1[C@@H](COc2cccc(CCO)c2)[C@H](O)C[C@H]1Cl` [Example 62, (Z)-7-{(1R,2S,3R,5R)-5-Chloro-3-hydroxy-2-[3-(2-hydroxy-ethyl)-phenoxymethyl]-cyclopentyl}-hept-5-enoic acid], the EC50 in assay [1] is 18 nM; in assay [4], 1970 nM; in assay [5] it was more than 10000 nM. Further, the Ki in assay [2] was found to be 161 nM.

With `O=C(O)CCC/C=C\C[C@@H]1[C@@H](COc2ccccc2CCO)[C@H](O)C[C@H]1Cl` [Example 61, (Z)-7-{(1R,2S,3R,5R)-5-Chloro-3-hydroxy-2-[2-(2-hydroxy-ethyl)-phenoxymethyl]-cyclopentyl}-hept-5-enoic acid], the EC50 in assay [1] was 128 nM; in assay [4], 5980 nM; in assay [5], more than 10000 nM. Also, in assay [2], the Ki worked out at 3910 nM.

Regarding `Cc1cc(OC[C@@H]2[C@@H](C/C=C\CCCC(=O)O)[C@H](Cl)C[C@H]2O)cc(C)c1CO` [Example 56, (Z)-7-[(1R,2S,3R,5R)-5-Chloro-3-hydroxy-2-(4-hydroxymethyl-3,5-dimethyl-phenoxymethyl)-cyclopentyl]-hept-5-enoic acid], the results for the EC50 in assay [1] and in assay [4] were 1.8 nM and 27 nM, respectively. Also, the Ki in assay [2] came to 64 nM; in assay [3] it was 2200 nM.

With `O=C(O)CCC/C=C\C[C@@H]1[C@@H](COc2ccc(CCO)cc2)[C@H](O)C[C@H]1Cl` [Example 63, (Z)-7-{(1R,2S,3R,5R)-5-Chloro-3-hydroxy-2-[4-(2-hydroxy-ethyl)-phenoxymethyl]-cyclopentyl}-hept-5-enoic acid], the Ki in assay [2] was 1990 nM. In addition, the EC50 in assay [4] and in assay [5] was more than 10000 nM throughout.

For `Cc1ccc(OC[C@@H]2[C@@H](C/C=C\CCCC(=O)O)[C@H](Cl)C[C@H]2O)c(C)c1` [Example 33, (Z)-7-[(1R,2S,3R,5R)-5-Chloro-2-(2,4-dimethyl-phenoxymethyl)-3-hydroxy-cyclopentyl]-hept-5-enoic acid], the EC50 in assay [1] amounted to 72 nM; in assay [4] it was 277 nM; in assay [5], 7250 nM. In addition, in assay [2], the Ki was 620 nM.

Consider `CCCCCC(O)c1ccc(OC[C@@H]2[C@@H](C/C=C\CCCC(=O)O)[C@H](Cl)C[C@H]2O)cc1` (stereo partly drawn) [Example 46, (Z)-7-{(1R,2S,3R,5R)-5-Chloro-3-hydroxy-2-[4-(1-hydroxy-hexyl)-phenoxymethyl]-cyclopentyl}-hept-5-enoic acid], for which the EC50 in assay [1] was found to be 119 nM; in assay [4] it was 531 nM. Besides, the Ki in assay [2] is 2350 nM; in assay [3], 2650 nM.
